Key:
Format in all cases: functional, cell-based
KB [1] = experiment: In vitro antitumor activity against human epidermoid carcinoma KB cells by using MTT assay; No significant cytotoxicity
L1210 [2] = experiment: In vitro antitumor activity against murine lymphoma L1210 cells by using MTT assay; No significant cytotoxicity; settings: Mus musculus
KB [3] = experiment: In vitro antitumor activity against human epidermoid carcinoma KB cells by MTT assay.
L1210 [4] = experiment: In vitro antitumor activity against murine lymphoma L1210 cells by MTT assay.; settings: Mus musculus

SMILES | IC50 (KB [3]) [µM] | IC50 (L1210 [4]) [µM] | IC50 (KB [1]) [µM] | IC50 (L1210 [2]) [µM]
CCCCCCCCn1c2nc(=O)n(-c3ccccc3)c(=O)c-2cc2ncccc21 |  |  | > 200 | > 200
CCCCCCCCCCCCn1c2nc(=O)[nH]c(=O)c-2cc2ccc(C(F)(F)F)cc21 |  |  | > 200 | > 200
CCCCCCCCCCCCn1c2nc(=O)[nH]c(=O)c-2cc2ccc([N+](=O)[O-])cc21 | 12.8 | 2.5 |  | 
CCCCCCCCn1c2nc(=O)n(-c3ccccc3)c(=O)c-2cc2ccccc21 |  |  | > 200 | > 200
CCCCCCCCCCCCn1c2nc(=O)n(C)c(=O)c-2cc2ncccc21 |  |  | > 200 | > 200
CCCCCCCCCCCCn1c2nc(=O)n(C)c(=O)c-2cc2ccc([N+](=O)[O-])cc21 | 8 | 5.2 |  | 
CCCCCCCCn1c2nc(=O)n(CC(=O)OCC)c(=O)c-2cc2ccc([N+](=O)[O-])cc21 | 7.6 | 8.4 |  | 
CCCCCCCCn1c2nc(=O)n(CC(=O)OCC)c(=O)c-2cc2cc([N+](=O)[O-])ccc21 | 30 | 12 |  | 
CCCCCCCCCCCCn1c2nc(=O)[nH]c(=O)c-2cc2cc(C(F)(F)F)ccc21 |  |  | > 200 | > 200
CCCCCCCCCCCCn1c2nc(=O)[nH]c(=O)c-2cc2ccccc21 |  |  | > 200 | > 200
CCCCCCCCCCCCn1c2nc(=O)n(C)c(=O)c-2cc2cccc([N+](=O)[O-])c21 | 20 | 7.8 |  | 
CCCCCCCCn1c2nc(=O)n(-c3ccccc3)c(=O)c-2cc2cccnc21 |  |  | > 200 | > 200
CCCCCCCCCCCCn1c2nc(=O)n(C)c(=O)c-2cc2cccnc21 |  |  | > 200 | > 200
CCCCCCCCn1c2nc(=O)n(CC(=O)OCC)c(=O)c-2cc2ccccc21 |  |  | > 200 | > 200
CCCCCCCCCCCCn1c2nc(=O)n(C)c(=O)c-2cc2ccccc21 |  |  | > 200 | > 200

The next lines start with results.

IC50 (KB [3]) [µM] | IC50 (L1210 [4]) [µM] | SMILES | IC50 (KB [1]) [µM] | IC50 (L1210 [2]) [µM]
26.4 | 6.8 | CCCCCCCCCCCCn1c2nc(=O)[nH]c(=O)c-2cc2cc([N+](=O)[O-])ccc21 |  | 
12.4 | 2.6 | CCCCCCCCn1c2nc(=O)n(-c3ccccc3)c(=O)c-2cc2ccc([N+](=O)[O-])cc21 |  | 
6 | 1.5 | CCCCCCCCn1c2nc(=O)n(-c3ccccc3)c(=O)c-2cc2cccc([N+](=O)[O-])c21 |  | 
7.6 | 3 | CCCCCCCCn1c2nc(=O)n(CC(=O)OCC)c(=O)c-2cc2c([N+](=O)[O-])cccc21 |  | 
2.6 | 1.8 | CCCCCCCCCCCCn1c2nc(=O)[nH]c(=O)c-2cc2cccc([N+](=O)[O-])c21 |  | 
8.4 | 2.6 | CCCCCCCCn1c2nc(=O)n(-c3ccccc3)c(=O)c-2cc2c([N+](=O)[O-])cccc21 |  | 
3.2 | 0.4 | CCCCCCCCCCCCn1c2nc(=O)[nH]c(=O)c-2cc2c([N+](=O)[O-])cccc21 |  | 
15.8 | 21.6 | CCCCCCCCCCCCn1c2nc(=O)n(C)c(=O)c-2cc2cc([N+](=O)[O-])ccc21 |  | 
3.6 | 4 | CCCCCCCCn1c2nc(=O)n(CC(=O)OCC)c(=O)c-2cc2cccc([N+](=O)[O-])c21 |  | 
6.8 | 1.6 | CCCCCCCCCCCCn1c2nc(=O)n(C)c(=O)c-2cc2c([N+](=O)[O-])cccc21 |  | 
7.6 | 9.6 | CCCCCCCCn1c2nc(=O)n(-c3ccccc3)c(=O)c-2cc2cc([N+](=O)[O-])ccc21 |  | 
0.4 | 0.6 | CO[C@@]12[C@H](COC(N)=O)C3=C(C(=O)C(C)=C(N)C3=O)N1C[C@@H]1N[C@@H]12 [MITOMYCIN] |  | 

From ChEMBL document CHEMBL1128820, “Synthesis and evaluation of nitro 5-deazaflavins as novel bioreductive antitumor agents” (Bioorg Med Chem Lett, 1995)
